# Laboratory results from BindingDB's records for doi:10.1016/j.bmcl.2008.06.042 (Ariad Pharmaceuticals, 2008).
# Biological target: FLT3 receptor tyrosine kinase (Homo sapiens) (UniProt P36888)
# Assay: Inhibition of Flt3
# FLT3 receptor tyrosine kinase (Homo sapiens), sequence (P36888 whole entry, looked up): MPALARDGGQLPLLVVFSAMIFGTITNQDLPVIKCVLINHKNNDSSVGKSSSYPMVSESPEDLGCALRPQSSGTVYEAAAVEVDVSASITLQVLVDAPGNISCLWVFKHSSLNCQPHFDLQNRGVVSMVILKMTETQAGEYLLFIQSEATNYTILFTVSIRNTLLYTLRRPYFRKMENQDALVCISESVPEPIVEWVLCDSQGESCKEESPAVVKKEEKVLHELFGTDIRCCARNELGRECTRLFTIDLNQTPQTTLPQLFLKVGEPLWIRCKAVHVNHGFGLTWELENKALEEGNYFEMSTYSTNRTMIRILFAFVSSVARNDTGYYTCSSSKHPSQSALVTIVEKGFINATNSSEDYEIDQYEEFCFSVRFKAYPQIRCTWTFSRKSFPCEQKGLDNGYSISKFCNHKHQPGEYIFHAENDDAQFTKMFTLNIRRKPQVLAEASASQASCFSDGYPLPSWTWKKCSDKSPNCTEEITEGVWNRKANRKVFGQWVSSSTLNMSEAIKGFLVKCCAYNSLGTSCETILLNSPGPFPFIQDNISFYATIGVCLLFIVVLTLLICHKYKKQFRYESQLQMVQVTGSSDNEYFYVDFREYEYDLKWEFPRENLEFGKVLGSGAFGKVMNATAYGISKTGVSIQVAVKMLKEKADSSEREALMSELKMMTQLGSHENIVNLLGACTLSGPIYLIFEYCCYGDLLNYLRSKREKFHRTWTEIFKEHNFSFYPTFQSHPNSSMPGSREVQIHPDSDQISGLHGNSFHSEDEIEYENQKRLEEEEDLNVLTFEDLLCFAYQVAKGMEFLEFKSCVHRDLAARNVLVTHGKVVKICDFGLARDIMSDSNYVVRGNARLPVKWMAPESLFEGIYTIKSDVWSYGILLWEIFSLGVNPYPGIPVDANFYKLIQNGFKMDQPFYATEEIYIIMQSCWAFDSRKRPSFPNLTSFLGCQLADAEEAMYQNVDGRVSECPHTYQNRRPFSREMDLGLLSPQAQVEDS
smiles,measurement,value
Cc1cccc(C)c1/C=C/n1cnc2c(Nc3ccc(P(C)(C)=O)cc3)ncnc21 [AP24149],IC50,> 1 µM
